Patent publication EP2607478A1, “Phenanthroline treated MSC” (Universiteit Twente, priority 2011, dated 2013)
Where a name gives a salt, the structure may show the parent alone.

System: MSCs
Assay: Gene expression analysis by real-time qPCR in treated MSCs
Format: cell-based, Human
Conditions: primary MSCs, 1 nM, 10 nM and 1 uM, 2 days, qPCR (Figure 7)
Experimental: MSCs were seeded in triplicate in 6-well plates at 5000 cells/cm^2 and allowed to attach for 10-15 hours in proliferation medium. Upon reaching near confluency, cells were treated as described above. After 2 days of treatment and 2 subsequent days of incubation with fresh medium, cells were lysed immediately with TRIzol. RNA was isolated using a Bioke RNA II nucleospin RNA isolation kit (Machery Nagel) and RNA concentrations were measured using an ND100 spectrophotometer (Nanodrop technologies, USA). cDNA was synthesized from 100 ng of RNA, using iScript (BioRad) according to the manufacturer's protocol. For qualitative PCR, a master mix, containing distilled water, forward primer, reverse primer (Sigma Genosys), BSA, and SYBR green I mix (all from Invitrogen) was prepared. Real-time qPCR was performed in a Light-Cycler (Roche). Light-Cycler data was analyzed using the fit points method of Light-Cycler software. The baseline was set at the lower log-linear part above baseline noise and the crossing […] (Ct value) was determined. Ct values were normalized to the 18S housekeeping gene and delta Ct (Ct, control ― Ct, sample) was used to calculate the upregulation in gene expression (53).

Q: CCN(CC)CCCC(C)Nc1c2ccc(Cl)cc2nc2ccc(OC)cc12 (stereo not shown) [Quinacrine hydrochloride] was tested. Which VEGF gene expression did it give?
A: The VEGF gene expression was “does not affect VEGF gene expression”.
